The test system of one data set is Human whole blood cells. In words: GLA stimulation of human blood cells, IL-1β ELISA. The class given is cell-based. The following applies: 16 hours. As to the method:
Human whole blood cells were cultured with various adjuvant concentrations of either synthetic GLA (Avanti Polar Lipids, Inc., Alabaster, Ala.; product number 699800) or the natural product MPL® (GSK Biologicals, Rixensart, Belgium), achieved by diluting an aqueous adjuvant preparation in cell culture medium (DMEM containing 10% fetal bovine serum). Blood cells were maintained for 16 hours at 37° C. in a humidified atmosphere containing 5% CO2, prior to collection of cell-free culture supernatants. Supernatant fluids were assayed for soluble human cytokine IL-1β using specific sandwich ELISA assay kit (eBiosciences, San Diego, Calif.) according to the manufacturer's instructions.

For another data set, the system named is Influenza. The data set can be described thus: Fluzone vaccine with GLA-AF or GLA-SE in mice, anti-Fluzone IgG ELISA and HAI. The class given is in vivo, Mice (Balb/c). The conditions noted are these: GLA 20 μg in aqueous or stable oil formulation; compared to Fluzone alone. As to the method:
Mice (three Balb/c animals per group) were immunized twice at three-week intervals with the Fluzone vaccine (Sanofi-Aventis, Swiftwater, Pa., at 1/25 (20 μl) and 1/250 (2 μl) of the human dosage, alone, or formulated in (i) an aqueous emulsion containing GLA (Avanti Polar Lipids, Inc., Alabaster, Ala.; product number 699800; 20 μg per animal for each immunization) according to the procedure used in Example 1 above (“GLA-AF”), or (ii) a stable emulsion containing GLA (Avanti Polar Lipids, Inc., Alabaster, Ala.; product number 699800; 20 μg per animal for each immunization) according to the procedure used in Example 3 above (“GLA-SE”). Sera were collected by bleeding animals one week after each immunization, and serum levels of total IgG antibodies specific for Fluzone were examined by ELISA according to published methods (Id.). Serum levels of virus neutralizing antibodies were also examined by Hemagglutination Inhibition Assay (HAI) according to published methods.

For another data set, the system named is Leish-110f antigen. In words: Leish-110f antigen with different amounts of GLA-SE in mice, IgG1/IgG2a ELISA. The class given is in vivo, Mice (Balb/c). As to the method: Mice (three Balb/c animals per group) were immunized three times at two-week intervals with the Leish-110f antigen (10 μg per animal for each immunization) formulated in a stable emulsion containing different amounts of GLA (Avanti Polar Lipids, Inc., Alabaster, Ala.; product number 699800; 40, 20, 5, or 1 μg per animal for each immunization according to the procedure used in Example 3 above, GLA-SE). Sera were collected by bleeding animals one week after the first immunization, and serum levels of IgG1 and IgG2a antibodies specific for Leish-110f were examined by ELISA according to published methods (Id.).

The subject of data set [1] is Dendritic cells derived from purified blood CD14+ monocytes. The data set can be described thus: GLA stimulation of human dendritic cells, CD86 surface expression by flow cytometry. The class given is cell-based. An excerpt: Dendritic cells were derived from purified blood CD14+ monocytes following a published protocol. Various adjuvant concentrations of either synthetic GLA (Avanti Polar Lipids, Inc., Alabaster, Ala.; product number 699800) or the natural product MPL® (GSK Biologicals, Rixensart, Belgium) were achieved by diluting an aqueous adjuvant preparation in cell culture medium (RPMI containing 5% human serum). Prior to collection and analysis of the expression of activation markers, cells were maintained for 44 hours at 37° C. in a humidified atmosphere containing 5% CO2. Expression levels of the costimulatory molecule CD86 at the surface of DC were used as an indicator of cell activation and measured by flow cytometry on a LSRII instrument (BD Biosciences, San Jose, Calif.) using CD86-specific fluorochrome-labeled antibody (eBiosciences, San Diego, Calif.) according to the manufacturer's instructions.

A short description of a further data set: USP Rabbit Pyrogen Test. The following applies: in vivo. Here is the method:
GLA and MPL were evaluated for pyrogenicity/toxicity using the United States Pharmacopeial (USP) rabbit pyrogen test method. GLA was tested at the same doses and conditions commonly used for MPL.

For another data set, the system named is ID83 antigen. The data set can be described thus: ID83 antigen with GLA-SE, GLA/CpG-SE or GLA/GDQ-SE in mice, intracellular cytokine staining. The following applies: GLA/GDQ-SE or GLA/CpG-SE versus GLA-SE. The class given is in vivo, Mice (C57BL/6).
For a further data set, the system named is ML0276 antigen. In words: ML0276 antigen with CpG, Imiquimod, GLA-SE or mix in mice, IFN-γ CD4+ T cell ICS. The class given is in vivo, Mice (C57BL/6). The following applies: adjuvant given with ML0276 antigen 10 μg; saline background 0.04%. As to the method: Mice (three C57BL/6 animals per group) were immunized three times at three-week intervals with the ML0276 antigen (10 μg per animal for each immunization) adjuvanted with aqueous formulations containing CpG (CpG1826, Coley Pharmaceutical, 25 μg per animal for each immunization), or Imiquimod (IMQ) (3M Pharma, 25 μg per animal for each immunization), or GLA (Avanti Polar Lipids, Inc., Alabaster, Ala.; product number 699800; 25 μg per animal for each immunization, according to the procedure used in Example 3 above, GLA-SE), a mix of the three, or saline as negative control. Three weeks after the last injection, mice were sacrificed and spleen collected to analyze CD4+ T cell-dependent IFN-γ cytokine responses to in vitro ML0276 antigen stimulation by ICS and Flow cytometry according to published methods. Expression of IFN-γ cytokine has been associated with protective TH1 responses against M. leprae infection.

From patent US8343512B2, “Treatment of allergic conditions using a composition containing synthetic adjuvant” (Infectious Disease Research Institute, priority 2006, dated 2013) come the findings set out here.

Each structure is given as a SMILES string.

On to `CCCCCCCCCCCCCC(=O)O[C@H](CCCCCCCCCCC)CC(=O)O[C@@H]1[C@@H](NC(=O)C[C@@H](CCCCCCCCCCC)OC(=O)CCCCCCCCCCC)[C@H](OC[C@H]2O[C@H](O)[C@H](NC(=O)C[C@H](O)CCCCCCCCCCC)[C@@H](OC(=O)C[C@H](O)CCCCCCCCCCC)[C@@H]2O)O[C@H](CO)[C@H]1OP(=O)(O)O` [GLA, glucopyranosyl lipid adjuvant], for which the “concentration equivalent in potency (IL-1β secretion)” value with Human whole blood cells is recorded as 92 nM. The “Total IgG and neutralizing antibody titers in response to Fluzone vaccination” value in the data set on Influenza is on record as “enhanced”. The “Leish-110f-specific IgG1 and IgG2a antibody titers” value with Leish-110f antigen (GLA 40, 20, 5, or 1 μg in GLA-SE, one week after the first immunization) is “GLA dose-dependent”. Also, the “predominant Leish-110f-specific antibody isotype” value in the data set with Leish-110f antigen (all concentrations of GLA tested) was “Predominance of TH1 associated IgG2a antibody”. In data set [1] (CD86 expression), the “active at concentrations lower compared to MPL for human dendritic cell maturation” value is given as “at least 10 fold”. For the same molecule, in data set [1] (additional three donors, 1000 ng/ml to 1 ng/mL), the “CD86 expression, GLA versus MPL” value is “lower doses of GLA achieved higher CD86 expression than MPL”. The “pyrogenicity/toxicity, USP<151> requirements” value in “USP Rabbit Pyrogen Test” is listed as “passed the USP<151> requirements for the absence of pyrogens”.

Take `CCNCc1nc2c(N)nc3ccccc3c2n1CC(C)(C)O` [GDQ, Gardiquimod]: in the data set with ID83 antigen, the “frequency of ID83 specific cytokine producing T cells on addition of a second TLR ligand to ID83+GLA-SE” value is reported as “further increased”.

For the molecule `CC(C)Cn1cnc2c(N)nc3ccccc3c21` [IMQ, Imiquimod], in the data set on ML0276 antigen, the “frequency of ML0276 specific IFN-γ+ CD4+ T cells (positive cells)” value came out at 0.11%.
